Twelve molecules from patent US20240116985A1, “STAPLED PEPTIDES AND METHODS THEREOF” (priority 2020, published 2024) can be followed below.

Series [1] deals with T1, full-length B-Catenin (Uniprot ID P35222) (Homo sapiens, UniProt P35222).
T1 construct: 65 nM full-length B-Catenin (Uniprot ID P35222)
T1 sequence (P35222 1-781): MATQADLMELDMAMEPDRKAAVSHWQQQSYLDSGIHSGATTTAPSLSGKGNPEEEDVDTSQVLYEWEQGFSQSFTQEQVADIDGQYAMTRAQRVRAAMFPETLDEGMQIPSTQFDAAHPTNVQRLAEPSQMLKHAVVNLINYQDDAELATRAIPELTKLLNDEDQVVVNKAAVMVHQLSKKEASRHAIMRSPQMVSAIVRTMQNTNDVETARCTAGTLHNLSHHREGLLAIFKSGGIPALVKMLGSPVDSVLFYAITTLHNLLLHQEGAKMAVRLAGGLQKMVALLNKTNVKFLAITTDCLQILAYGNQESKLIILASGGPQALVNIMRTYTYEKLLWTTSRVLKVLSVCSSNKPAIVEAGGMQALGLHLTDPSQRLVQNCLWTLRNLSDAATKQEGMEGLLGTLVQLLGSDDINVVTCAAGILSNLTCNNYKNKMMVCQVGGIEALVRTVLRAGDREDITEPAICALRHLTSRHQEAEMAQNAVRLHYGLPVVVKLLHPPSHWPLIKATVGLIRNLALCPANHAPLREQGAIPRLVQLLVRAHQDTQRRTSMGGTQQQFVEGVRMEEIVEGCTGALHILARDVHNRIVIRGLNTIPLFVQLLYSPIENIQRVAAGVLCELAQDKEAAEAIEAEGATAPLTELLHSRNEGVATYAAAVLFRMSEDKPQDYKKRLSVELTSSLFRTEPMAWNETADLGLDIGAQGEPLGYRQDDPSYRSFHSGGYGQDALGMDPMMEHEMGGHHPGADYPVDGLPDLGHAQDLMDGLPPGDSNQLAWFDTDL
Nature of the series: Alphascreen binding assay (beta-catenin / biotin-TCF4 10-53). As to the method: In some embodiments, an assay is an Alphascreen binding assay. A useful protocol is described below as an example.
Alphascreen binding assay: Using the AlphaScreen Histidine (Nickel Chelate) Detection Kit (PerkinElmer), peptide solutions were prepared in buffer (50 mM Tris pH 8.0, 250 mM NaCl, 2% glycerol, 0.03% Tween-20, 0.01% TritonX-100, 0.1% BSA w/v) using a 3-fold serial dilution from 10 uM to 5 nM. Probe solution (65 nM full-length B-Catenin (Uniprot ID P35222), mixed with 10 nM biotin labeled TCF4 residues 10-53 (Uniprot ID Q9NQB0) peptide in buffer) was prepared and 4 uL per well was plated in a white polystyrene 384-well plate (Corning). Equal volume of the titrated peptide was added to the plate and incubated for 15 minutes at 20° C. Then 4 uL of donor and 4 uL acceptor beads at 10 ug/mL were added to the plate, for a 16 uL reaction pool and protected from light for 60 minutes at 20° C. prior to read. Reads were performed on a CLARIOstar plate reader (BMG Labtech) in duplicate, and data were fitted to a 1:1 binding model with hill slope using an in-house script. All provided concentrations are final concentrations.
(Bead proximity is the source of the signal in Alpha formats.)

The next series in a line: CHI Log D procedure. It is filed as physicochemical. To be noted: for CHI Log D: pH 7.4.

With `CCCC[C@@H]1NC(=O)[C@H](CC(=O)O)NC(=O)[C@](C)(NC(=O)[C@@H](NC(=O)[C@H](CC(=O)O)NC(=O)[C@H](C)NC(C)=O)[C@@H](C)CC)CCN(C)C(=O)OCC=CCCCCC[C@@](C)(C(=O)N[C@@H](Cc2ccccc2)C(=O)N[C@@H](Cc2c[nH]c3ccccc23)C(=O)N[C@@H](Cc2c[nH]cn2)C(N)=O)NC(=O)[C@H](CCC(N)=O)NC(=O)[C@H](Cc2ccccc2)NC(=O)[C@H](C)NC(=O)[C@H](C)NC1=O` [I-69, Ac-Ala-Asp-Ile-RdN-Asp-nLeu-Ala-Ala-Phe-Gln-S7-Phe-Trp-His-NH2], the response in series [1] was half-maximal at 9.1 µM (EC50). The “CHI Log D” value in the series “CHI Log D procedure” worked out at 1.593.

Turning to `CC(=O)N[C@@H](Cc1ccccc1)C(=O)N[C@@H](CC(=O)O)C(=O)N[C@@H](C)C(=O)N[C@]1(C)CCCCCCC=CCOC(=O)N2CC[C@@](C(=O)N[C@@H](Cc3ccccc3)C(=O)N[C@@H](Cc3c[nH]c4ccccc34)C(=O)N[C@@H](CCC(N)=O)C(N)=O)(C2)NC(=O)[C@H](C(C)C)NC(=O)[C@H](Cc2ccc(F)c(F)c2)NC(=O)[C@H](C)NC(=O)[C@H](C)NC(=O)[C@H](CC(=O)O)NC(=O)[C@H](CC(=O)O)NC1=O` [I-79, Ac-Phe-Asp-Ala-R8-Asp-Asp-Ala-Ala-34FF-Val-PyrS-Phe-Trp-Gln-NH2], the EC50 – broadly, the concentration at which the effect is half-maximal – in series [1] was determined as 3.97 µM. In “CHI Log D procedure” (pH 7.4, CHI Log D), the chromatographic logD (commonly lipophilicity estimated from chromatographic retention) is 1.27.

For the molecule `CC(=O)N[C@@H](Cc1ccccc1)C(=O)N[C@@H](CC(=O)O)C(=O)N[C@@H](C)C(=O)N[C@]1(C)CCCCCCC=CCOC(=O)N2CC[C@@](C(=O)N[C@@H](Cc3ccccn3)C(=O)N[C@@H](Cc3c[nH]c4ccccc34)C(=O)N[C@@H](CCC(N)=O)C(N)=O)(C2)NC(=O)[C@H](C(C)C)NC(=O)[C@H](Cc2ccccc2)NC(=O)[C@H](C)NC(=O)[C@H](C)NC(=O)[C@H](CC(=O)O)NC(=O)[C@H](CC(=O)O)NC1=O` [I-81, Ac-Phe-Asp-Ala-R8-Asp-Asp-Ala-Ala-Phe-Val-PyrS-2PyrA-Trp-Gln-NH2], the EC50 in series [1] amounted to 9.77 µM. Besides, the “CHI Log D” value in the series “CHI Log D procedure” was found to be 1.063.

The molecule `CC(=O)N[C@@H](Cc1ccccc1)C(=O)N[C@@H](CC(=O)O)C(=O)N[C@@H](C)C(=O)N[C@]1(C)CCCCCCC=CCOC(=O)N2CC[C@@](C(=O)N[C@@H](Cc3ccc(C(N)=O)cc3)C(=O)N[C@@H](Cc3c[nH]c4ccccc34)C(=O)N[C@@H](CCC(N)=O)C(N)=O)(C2)NC(=O)[C@H](C(C)C)NC(=O)[C@H](Cc2ccccc2)NC(=O)[C@H](C)NC(=O)[C@H](C)NC(=O)[C@H](CC(=O)O)NC(=O)[C@H](CC(=O)O)NC1=O` [I-89, Ac-Phe-Asp-Ala-R8-Asp-Asp-Ala-Ala-Phe-Val-PyrS-4CBMF-Trp-Gln-NH2] yielded a 50% effective concentration (EC50) in series [1] of 5.64 µM. In addition, the “CHI Log D” value in “CHI Log D procedure” was 0.967.

As for `CC(=O)N[C@@H](Cc1ccccc1)C(=O)N[C@@H](CC(=O)O)C(=O)N[C@@H](C)C(=O)N[C@]1(C)CCCCCCC=CCOC(=O)N2CC[C@@](C(=O)N[C@@H](Cc3ccccc3)C(=O)N[C@@H](Cc3c[nH]c4ccccc34)C(=O)N[C@@H](CCC(N)=O)C(N)=O)(C2)NC(=O)[C@H](C(C)C)NC(=O)[C@H](Cc2ccc(C(N)=O)cc2)NC(=O)[C@H](C)NC(=O)[C@H](C)NC(=O)[C@H](CC(=O)O)NC(=O)[C@H](CC(=O)O)NC1=O` [I-91, Ac-Phe-Asp-Ala-R8-Asp-Asp-Ala-Ala-4CBMF-Val-PyrS-Phe-Trp-Gln-NH2], the midpoint of the response in series [1], the EC50, lay at 4.72 µM. For the same molecule, the “CHI Log D” value in the series “CHI Log D procedure” is listed as 1.13.

As for `CC(=O)N[C@@H](Cc1ccccc1)C(=O)N[C@@H](CC(=O)O)C(=O)N[C@@H](C)C(=O)N[C@]1(C)CCCCCCC=CCOC(=O)N2CC[C@@](C(=O)N[C@@H](Cc3ccccc3)C(=O)N[C@@H](Cc3c[nH]c4ccccc34)C(=O)N[C@@H](CCC(N)=O)C(N)=O)(C2)NC(=O)[C@H](C(C)C)NC(=O)[C@H](Cc2ccccc2)NC(=O)[C@H](C)NC(=O)[C@H](C)NC(=O)[C@H](CCc2ccccc2)NC(=O)[C@H](CC(=O)O)NC1=O` [I-97, Ac-Phe-Asp-Ala-R8-Asp-hPhe-Ala-Ala-Phe-Val-PyrS-Phe-Trp-Gln-NH2], the EC50 in series [1] was determined as 7.01 µM. For the same molecule, the “CHI Log D” value in “CHI Log D procedure” stood at 2.062.

In turn, `COc1cccc(C[C@@H]2NC(=O)[C@H](C)NC(=O)[C@H](C)NC(=O)[C@H](CC(=O)O)NC(=O)[C@H](CC(=O)O)NC(=O)[C@](C)(NC(=O)[C@H](C)NC(=O)[C@H](CC(=O)O)NC(=O)[C@H](Cc3ccccc3)NC(C)=O)CCCCCCC=CCOC(=O)N3CC[C@@](C(=O)N[C@@H](Cc4ccccc4)C(=O)N[C@@H](Cc4c[nH]c5ccccc45)C(=O)N[C@@H](CCC(N)=O)C(N)=O)(C3)NC(=O)[C@H](C(C)C)NC2=O)c1` [I-103, Ac-Phe-Asp-Ala-R8-Asp-Asp-Ala-Ala-3OMeF-Val-PyrS-Phe-Trp-Gln-NH2] came in with an EC50 in series [1] of 4.94 µM. In addition, in the series “CHI Log D procedure”, the “CHI Log D” value came out at 1.268.

Consider `COc1cccc(C[C@@H]2NC(=O)[C@H](C)NC(=O)[C@H](C)NC(=O)[C@H](CC(=O)O)NC(=O)[C@H](CC(=O)O)NC(=O)[C@](C)(NC(=O)[C@H](C)NC(=O)[C@H](CC(=O)O)NC(=O)[C@H](Cc3ccccc3)NC(C)=O)CCCCCCC=CCOC(=O)N3CC[C@@](C(=O)N[C@@H](Cc4ccccc4)C(=O)N[C@@H](Cc4c[nH]c5ccccc45)C(=O)N[C@@H](CCC(N)=O)C(N)=O)(C3)NC(=O)[C@H](C(C)C)NC2=O)c1` [I-104, Ac-Phe-Asp-Ala-R8-Asp-Asp-Ala-Ala-3OMeF-Val-PyrS-Phe-Trp-Gln-NH2], for which, in series [1], the midpoint of the response, the EC50, lay at 6.17 µM. For the same molecule, in the series “CHI Log D procedure”, the “CHI Log D” value is recorded as 1.333.

In series [1], `CC(=O)N[C@@H](Cc1ccccc1)C(=O)N[C@@H](CC(=O)O)C(=O)N[C@@H](C)C(=O)N[C@]1(C)CCCCCCC=CCOC(=O)N2CC[C@@](C(=O)N[C@@H](Cc3ccccc3)C(=O)N[C@@H](Cc3c[nH]c4ccccc34)C(=O)N[C@@H](CCC(N)=O)C(N)=O)(C2)NC(=O)[C@H](C(C)C)NC(=O)[C@H](Cc2cccc(C(N)=O)c2)NC(=O)[C@H](C)NC(=O)[C@H](C)NC(=O)[C@H](CC(=O)O)NC(=O)[C@H](CC(=O)O)NC1=O` [I-109, Ac-Phe-Asp-Ala-R8-Asp-Asp-Ala-Ala-3CBMF-Val-PyrS-Phe-Trp-Gln-NH2] gave an EC50 of 8.82 µM. Besides, the “CHI Log D” value in “CHI Log D procedure” turned out to be 1.223.

Turning to `CC(=O)N[C@@H](Cc1ccccc1)C(=O)N[C@@H](CC(=O)O)C(=O)N[C@@H](C)C(=O)N[C@]1(C)CCCCCCC=CCOC(=O)N2CC[C@@](C(=O)N[C@@H](Cc3ccc(C(=O)O)cc3)C(=O)N[C@@H](Cc3c[nH]c4ccccc34)C(=O)N[C@@H](CCC(N)=O)C(N)=O)(C2)NC(=O)[C@H](C(C)C)NC(=O)[C@H](Cc2ccccc2)NC(=O)[C@H](C)NC(=O)[C@H](C)NC(=O)[C@H](CC(=O)O)NC(=O)[C@H](CC(=O)O)NC1=O` [I-110, Ac-Phe-Asp-Ala-R8-Asp-Asp-Ala-Ala-Phe-Val-PyrS-4COOHF-Trp-Gln-NH2], in series [1], the EC50 worked out at 8.5 µM. In addition, in the series “CHI Log D procedure”, the “CHI Log D” value was determined as 0.769.

Turning to `CC(=O)N[C@@H](Cc1ccccc1)C(=O)N[C@@H](CC(=O)O)C(=O)N[C@@H](C)C(=O)N[C@]1(C)CCCCCCC=CCOC(=O)N2CC[C@@](C(=O)N[C@@H](Cc3ccc(C(=O)O)cc3)C(=O)N[C@@H](Cc3c[nH]c4ccccc34)C(=O)N[C@@H](CCC(N)=O)C(N)=O)(C2)NC(=O)[C@H](C(C)C)NC(=O)[C@H](Cc2ccccc2)NC(=O)[C@H](C)NC(=O)[C@H](C)NC(=O)[C@H](CC(=O)O)NC(=O)[C@H](CC(=O)O)NC1=O` [I-111, Ac-Phe-Asp-Ala-R8-Asp-Asp-Ala-Ala-Phe-Val-PyrS-4COOHF-Trp-Gln-NH2], the EC50 in series [1] was 7.64 µM. In addition, the “CHI Log D” value in the series “CHI Log D procedure” turned out to be 0.779.

In series [1], `CC(=O)N[C@@H](Cc1ccccc1)C(=O)N[C@@H](CC(=O)O)C(=O)N[C@@H](C)C(=O)N[C@]1(C)CCCCCCC=CCOC(=O)N2CC[C@@](C(=O)N[C@@H](Cc3ccccc3)C(=O)N[C@@H](Cc3c[nH]c4ccccc34)C(=O)N[C@@H](CCC(N)=O)C(N)=O)(C2)NC(=O)[C@H](C(C)C)NC(=O)[C@H](Cc2ccc3ccccc3c2)NC(=O)[C@H](C)NC(=O)[C@H](C)NC(=O)[C@H](CC(=O)O)NC(=O)[C@H](CC(=O)O)NC1=O` [I-113, Ac-Phe-Asp-Ala-R8-Asp-Asp-Ala-Ala-2NapA-Val-PyrS-Phe-Trp-Gln-NH2] showed an EC50 of 6.2 µM. The “CHI Log D” value in “CHI Log D procedure” amounted to 1.435.
